In publication PMC3028519 (Toxicology and applied pharmacology, 2010):
Where two headings read alike, the source gives them in different places.

Key:
[1] = molecular target: human MRP2 (Homo sapiens, UniProt Q92887); format: in vitro ADME; details: 37°C, inside-out Sf9 membrane vesicles
[2] = Disposition of Hg; details: for renal burden of Hg (total renal mass): HgCl2 0.5 μmol/kg (+1.25 μmol/kg Cys) or CH3HgCl 5 μmol/kg (+12.5 μmol/kg Cys); for administered dose present in blood / renal burden of Hg: rats, strain not stated (discussion); for cortical concentration of Hg, TR− rats compared with corresponding control rats / cortical concentration of Hg, compared with rats of the same strain exposed to HgCl2 or CH3HgCl alone: renal cortex; for distribution of Hg in blood between plasma and cellular components: each group of rats
[3] = both control and TR− rats, 24 h, data not shown
[4] = control (Wistar) rats, i.v., 24 h

Chain of human MRP2 (Q92887 whole entry): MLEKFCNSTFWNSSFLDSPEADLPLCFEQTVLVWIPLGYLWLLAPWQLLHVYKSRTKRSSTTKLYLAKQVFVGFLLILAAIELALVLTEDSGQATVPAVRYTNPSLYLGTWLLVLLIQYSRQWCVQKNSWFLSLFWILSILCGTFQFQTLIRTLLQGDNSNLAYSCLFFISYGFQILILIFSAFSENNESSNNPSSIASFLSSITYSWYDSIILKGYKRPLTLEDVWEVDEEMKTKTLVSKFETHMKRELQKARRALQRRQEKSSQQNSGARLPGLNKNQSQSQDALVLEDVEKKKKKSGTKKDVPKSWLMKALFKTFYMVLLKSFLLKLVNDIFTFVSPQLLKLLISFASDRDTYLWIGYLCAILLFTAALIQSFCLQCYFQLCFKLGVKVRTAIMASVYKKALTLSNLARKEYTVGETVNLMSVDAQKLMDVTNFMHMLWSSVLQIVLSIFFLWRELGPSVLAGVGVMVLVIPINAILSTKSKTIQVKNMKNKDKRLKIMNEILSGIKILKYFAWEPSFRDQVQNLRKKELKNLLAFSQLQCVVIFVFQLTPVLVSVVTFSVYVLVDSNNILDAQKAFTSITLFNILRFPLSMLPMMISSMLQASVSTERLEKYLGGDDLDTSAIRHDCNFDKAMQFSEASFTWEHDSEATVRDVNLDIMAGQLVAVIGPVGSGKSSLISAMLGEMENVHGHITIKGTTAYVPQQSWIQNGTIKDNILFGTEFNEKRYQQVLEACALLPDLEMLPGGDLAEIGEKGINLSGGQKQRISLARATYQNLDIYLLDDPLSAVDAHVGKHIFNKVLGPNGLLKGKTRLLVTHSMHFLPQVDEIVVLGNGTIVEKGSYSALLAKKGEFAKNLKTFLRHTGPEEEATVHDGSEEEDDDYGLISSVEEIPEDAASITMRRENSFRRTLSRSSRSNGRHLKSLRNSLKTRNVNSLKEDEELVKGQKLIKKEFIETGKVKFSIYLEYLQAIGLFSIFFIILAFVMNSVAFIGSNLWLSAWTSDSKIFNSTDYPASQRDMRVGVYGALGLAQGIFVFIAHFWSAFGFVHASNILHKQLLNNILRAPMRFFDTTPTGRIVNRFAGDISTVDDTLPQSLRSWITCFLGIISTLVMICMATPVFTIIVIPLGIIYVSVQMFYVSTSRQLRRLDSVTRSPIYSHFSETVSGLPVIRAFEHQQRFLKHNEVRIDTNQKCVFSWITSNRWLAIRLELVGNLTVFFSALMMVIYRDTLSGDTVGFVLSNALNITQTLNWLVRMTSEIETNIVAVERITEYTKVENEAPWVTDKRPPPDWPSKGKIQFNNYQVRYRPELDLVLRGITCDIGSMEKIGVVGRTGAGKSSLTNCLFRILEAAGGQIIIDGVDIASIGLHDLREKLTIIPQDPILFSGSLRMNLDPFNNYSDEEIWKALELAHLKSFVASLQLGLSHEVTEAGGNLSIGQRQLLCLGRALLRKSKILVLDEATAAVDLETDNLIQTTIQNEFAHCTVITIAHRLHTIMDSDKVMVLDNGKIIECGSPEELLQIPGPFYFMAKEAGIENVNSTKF

| Compound | hepatic burden of Hg ([2]; TR− rats, i.v., 24 h) | renal burden of Hg (total renal mass) ([2]; TR− rats, i.v., 24 h) | renal burden of Hg (total renal mass) [2, 4] | urinary excretion of Hg in 24 h ([2]; control rats, i.v.) | amount of Hg in blood, TR− rats compared with corresponding control rats ([2]; i.v., 24 h) | renal burden of Hg, TR− rats compared with corresponding control rats ([2]; i.v., 24 h) | administered dose present in blood ([2]; i.v., 24 h) | renal burden of Hg ([2]; i.v., 24 h) | cortical concentration of Hg, TR− rats compared with corresponding control rats ([2]; i.v., 24 h) | uptake into MRP2 vesicles compared with control vesicles ([1]; 5 μM mercuric conjugate) | concentration of Hg in the outer stripe of the outer medulla, compared with rats of the same strain exposed to HgCl2 or CH3HgCl alone ([2]; TR− rats, i.v., 24 h) | cortical concentration of Hg, compared with rats of the same strain exposed to HgCl2 or CH3HgCl alone ([2]; TR− rats, i.v., 24 h) | concentration of Hg in the outer stripe of the outer medulla, compared with rats of the same strain exposed to HgCl2 or CH3HgCl alone ([2]; control rats, i.v., 24 h) | cortical concentration of Hg, compared with rats of the same strain exposed to HgCl2 or CH3HgCl alone ([2]; control rats, i.v., 24 h) | hepatic burden of Hg ([2]; control rats, i.v., 24 h) | distribution of Hg in blood between plasma and cellular components ([2]; 24 h, data not shown) | further results |
| --- | --- | --- | --- | --- | --- | --- | --- | --- | --- | --- | --- | --- | --- | --- | --- | --- | --- |
| CCCCC/C=C\C\C=C/C=C/C=C/[C@@H](SC[C@H](NC(=O)CC[C@H](N)C(=O)O)C(=O)NCC(=O)O)[C@@H](O)CCCC(=O)O [LTC4, Leukotriene C4, reference compound] |  |  |  |  |  |  |  |  |  |  |  |  |  |  |  |  | uptake into MRP2 vesicles compared with control vesicles ([1]; 50 nM LTC4, 2.5 min): significantly greater in MRP2 vesicles than in control vesicles |
| [CH3][Hg][Cl] [CH3HgCl, methylmercuric chloride] | about 14 % of the dose | approximately 5 % of the administered dose | approximately 5 % of the administered dose | approximately 0.5 % of the administered dose | did not significantly alter | No significant differences | over 40% | about 5 % of the dose | similar |  |  |  |  |  |  |  | hematological burden of Hg associated with cellular components of blood [2, 3]: approximately 99%; hematological burden of Hg present in plasma [2, 3]: ~1%; hepatic burden of Hg, TR− rats compared with corresponding control rats ([2]; i.v., 24 h): two-fold greater; urinary excretion of Hg, control rats compared with corresponding TR− rats ([2]; i.v., 24 h): not significantly different |
| Cysteine-S-conjugate of CH3HgCl [Cys-S-CH3Hg] |  |  |  |  |  |  |  |  | no significant difference | significantly greater in MRP2 vesicles than in control vesicles | significantly greater | significantly greater | significantly greater | significantly greater |  |  |  |
| [Cl][Hg][Cl] [HgCl2, mercuric chloride] | ~6.5 % of the dose | 60 % of the administered dose | approximately 50 % of the administered dose | approximately 4 % of the administered dose | significantly greater | significantly different than that of corresponding control (Wistar) rats | 1-2% | approximately 50 % of the dose | tended to be greater |  |  |  |  |  | approximately 3.5 % of the administered dose | distributed evenly between plasma and cellular components | fecal excretion of Hg after 24 h ([2]; TR− rats, i.v.): approximately 1.5 % of the administered dose; urinary excretion of Hg in 24 h ([2]; TR− rats, i.v.): about 1.5 % of the administered dose; fecal excretion of Hg after 24 h ([2]; control rats, i.v.): approximately 3 % of the administered dose |
| N[C@@H](CS)C(=O)[O-].N[C@@H](CS)C(=O)[O-].[Hg+2] [Cys-S-Hg-S-Cys, Cysteine-S-conjugate of HgCl2] |  |  |  |  | slightly, but not significantly, greater | more Hg was detected in kidneys of TR^− rats |  | ~70 % of the dose | tended to be greater | significantly greater in MRP2 vesicles than in control vesicles | not significantly different | significant increase | not significantly different | significant increase | ~5 % of the administered dose | distributed evenly between plasma and cellular components | fecal excretion of Hg, compared with rats of the same strain exposed to HgCl2 or CH3HgCl alone ([2]; TR− rats, i.v., 24 h): not significantly different; hematological burden of Hg, compared with rats of the same strain exposed to HgCl2 or CH3HgCl alone ([2]; TR− rats, i.v., 24 h): significantly lower; hepatic burden of Hg, compared with rats of the same strain exposed to HgCl2 or CH3HgCl alone ([2]; TR− rats, i.v., 24 h): not significantly different; renal burden of Hg, compared with rats of the same strain exposed to HgCl2 or CH3HgCl alone ([2]; TR− rats, i.v., 24 h): significantly greater than that of corresponding rats treated with HgCl2; urinary excretion of Hg, compared with rats of the same strain exposed to HgCl2 or CH3HgCl alone ([2]; TR− rats, i.v., 24 h): not significantly different; fecal excretion of Hg, compared with rats of the same strain exposed to HgCl2 or CH3HgCl alone ([2]; control rats, i.v., 24 h): significantly greater than that of corresponding rats exposed to HgCl2 alone; hepatic burden of Hg, compared with rats of the same strain exposed to HgCl2 or CH3HgCl alone ([2]; control rats, i.v., 24 h): increased significantly; renal burden of Hg, compared with rats of the same strain exposed to HgCl2 or CH3HgCl alone ([2]; control rats, i.v., 24 h): significantly greater than that of corresponding rats treated with HgCl2; urinary excretion of Hg, compared with rats of the same strain exposed to HgCl2 or CH3HgCl alone ([2]; control rats, i.v., 24 h): not significantly different |
